The record followed here is patent US20040127518A1, “Modulation of anxiety through blockade of anandamide hydrolysis” (priority 2002, published 2004).

For one data set, the system named is rat cortical neurons. As to the kind of experiment: Transport, accumulation and release of non-metabolized [3H]anandamide in cortical neurons. The data set is classed as cell-based.
A short description of a further data set: Mouse hot-plate test. The data set is classed as in vivo. To be noted: dose not stated, data not shown. The method, then:
We dissolved FAAH inhibitors in polyethyleneglycol/water (1/1) and rimonabant in saline. Formalin and hot-plate assays were carried out in the mouse, as described (Beltramo, M. et al., FEBS Lett., 403, 263-267 (1997)).
The compounds exerted, however, moderate antinociceptive effects in two models of acute pain.

For another data set, the target named is T1, brain FAAH activity (Rattus norvegicus, UniProt P97612).
T1 construct: from tissue; host or cells: rat brain (membrane fraction of homogenate; Wistar rats)
T1 sequence (P97612 1-579): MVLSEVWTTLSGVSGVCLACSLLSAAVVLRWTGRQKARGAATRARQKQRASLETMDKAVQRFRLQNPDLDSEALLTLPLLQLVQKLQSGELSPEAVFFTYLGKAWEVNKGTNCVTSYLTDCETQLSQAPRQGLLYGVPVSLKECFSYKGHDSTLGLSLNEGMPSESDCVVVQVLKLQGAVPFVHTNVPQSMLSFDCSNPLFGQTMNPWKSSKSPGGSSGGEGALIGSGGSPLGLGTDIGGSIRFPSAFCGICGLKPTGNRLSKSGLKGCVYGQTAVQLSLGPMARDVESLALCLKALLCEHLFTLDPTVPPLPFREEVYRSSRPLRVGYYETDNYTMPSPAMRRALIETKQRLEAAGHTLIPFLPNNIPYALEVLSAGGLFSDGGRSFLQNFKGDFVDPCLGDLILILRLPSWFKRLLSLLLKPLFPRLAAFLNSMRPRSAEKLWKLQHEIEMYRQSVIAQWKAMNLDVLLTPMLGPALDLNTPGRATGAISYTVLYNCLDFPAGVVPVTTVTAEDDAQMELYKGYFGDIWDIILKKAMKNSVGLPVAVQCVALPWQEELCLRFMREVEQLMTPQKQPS
Put plainly: Brain FAAH activity after systemic (i.p.) administration. The conditions noted are these: ip, six experiments, read-out: half-maximal inhibition of brain FAAH activity (ID50). The data set is classed as in vivo.

A short description of data set [1]: Motor activity (Opto-Varimex cage). The data set is classed as in vivo, rat. The procedure: We dissolved FAAH inhibitors and rimonabant in dimethylsulfoxide (DMSO)/saline (7/3 and 9/1, respectively); we administered FAAH inhibitors by i.p. injection 30 min before tests and rimonabant 30 min before UCM532. The elevated zero maze was comprised of a black Perspex annular platform (105 cm diameter, 10 cm width) elevated to 65 cm above ground level, divided equally into four quadrants (Bickerdike, M. J. et al., Eur. J. Pharmacol., 271, 403-411 (1994); Shepherd, J. K. et al., Psychopharmacology, 116, 56-64 (1994)). […] We placed the rats in a closed quadrant and video recorded them for 5-min periods, thoroughly cleaning the maze between sessions. […] Results are expressed as percent time in open quadrant/total time (percent time open). Results were analyzed by one-way ANOVA followed by Tukey's test. We recorded motor activity of each rat in an Opto-Varimex cage (Columbus Instruments, Columbus, Ohio) linked on-line to a computer and placed in a sound-attenuated room illuminated by a 20-W white light. The amount of time spent in ambulatory activity was analyzed using an Auto-Track software (Columbus Instruments, Columbus, Ohio) as described elsewhere (Ali, M. M. et al., Neurosci. Lett., 284, 57-60 (2000); Wedzony, K. et al., Neuropsychopharmacology, 23, 547-559 (2000)). […] We analyzed data by overall one-way ANOVA followed by Tukey's test for individual between-group comparisons. […]

A short description of data set [2]: Isolation-induced ultrasonic vocalization emission in rat pups. The data set is classed as in vivo. The conditions noted are these: 5 mg kg-1.
Data set [3] can be described thus: Food intake in free-feeding rats. The data set is classed as in vivo, rat. To be noted: UCM532 10 mg kg-1 i.p.; UCM597 0.3 mg kg-1 i.p.; data not shown. The method, then:
We recorded food intake in free-feeding rats by using an automated system (Scipro Inc., New York). Rats were acclimated to the test cages for three days prior to the tests. Each test began at the onset of the dark phase and lasted for 24 hours.

Data set [4] addresses electric eel acetylcholinesterase (Electrophorus electricus, UniProt O42275). As to the kind of experiment: biochemical.
Source text: (§1) We prepared cell fractions from rat brain homogenates, and assayed membrane FAAH activity and cytosol MGL activity using anandamide [ethanolamine-3H] (American Radiolabeled Chemicals, ARC (St. Louis Mo.), 60 Ci/mmol) and 2-mono-oleoyl-glycerol-[glycerol-1,2,3^−3H] (ARC, St. Louis Mo., 20 Ci/mmol), respectively, as substrates (Dinh, T. Proc. Natl. Acad. Sci. U.S.A. (2002)). We conducted [^3H]anandamide transport assays in human astrocytoma cells (Piomelli, D. et al., Proc. Natl. Acad. Sci. U.S.A., 96, 5802-5807 (1999)); CB1 and CB2 binding assays in rat cerebellar membranes and CB2-overexpressing Chinese hamster ovary cells (Receptor Biology-Perkin Elmer, Wellesley, Mass.), respectively, using [^3H]WIN-55212-2 (NEN-Dupont, Boston, Mass., 40-60 Ci/mmol) as a ligand (Devane, W. A. et al. Science, 258, 1946-1949 (1992)); cholinesterase assays with a commercial kit (Sigma, St. Louis, Mo.), using purified enzymes (electric eel acetylcholinesterase type V-S and horse serum cholinesterase; both from Sigma, St. Louis, Mo.) and following manufacturer's instructions.
Data set [5] in a line: Body temperature (rectal probe). The data set is classed as in vivo. The conditions noted are these: UCM532 10 mg kg-1 i.p.; UCM597 0.3 mg kg-1 i.p. The text has this: We dissolved all compounds in saline/Tween 80/polyethylenglycol (90/5/5) and administered them by i.p. injection immediately before tests. We measured body temperature with a rectal probe (Type T, Copper-Costantan Thermocouple-Physitemp Instruments INC, Clifton, N.J.) connected to a digital thermometer (model BAT-12 Physitemp Instruments INC, Clifton, N.J.); and catalepsy using the procedure described in Tseng and Craft (Tseng, A. H. et al., Eur. J. Pharmacol., 430, 41-47 (2001)).

The next data set addresses T2, FAAH (Rattus norvegicus, UniProt P97612).
T2 sequence (P97612 1-579): T1 sequence (P97612 1-579)
Put plainly: biochemical. Also on record: from tissue; host or cells: rat brain (membrane fraction of homogenate; Wistar rats). The data set is classed as biochemical.

Data set [6] addresses horse plasma butyryl cholinesterase (Equus caballus, UniProt P81908). As to the kind of experiment: Cholinesterase assay with commercial kit, purified enzyme.
Source text: as §1
Another data set has as its system anandamide transport. Put plainly: [3H]anandamide transport assay in human astrocytoma cells.

Like-named read-outs stand apart in the source and are kept apart here.

Sequence of horse plasma butyryl cholinesterase (P81908 whole entry): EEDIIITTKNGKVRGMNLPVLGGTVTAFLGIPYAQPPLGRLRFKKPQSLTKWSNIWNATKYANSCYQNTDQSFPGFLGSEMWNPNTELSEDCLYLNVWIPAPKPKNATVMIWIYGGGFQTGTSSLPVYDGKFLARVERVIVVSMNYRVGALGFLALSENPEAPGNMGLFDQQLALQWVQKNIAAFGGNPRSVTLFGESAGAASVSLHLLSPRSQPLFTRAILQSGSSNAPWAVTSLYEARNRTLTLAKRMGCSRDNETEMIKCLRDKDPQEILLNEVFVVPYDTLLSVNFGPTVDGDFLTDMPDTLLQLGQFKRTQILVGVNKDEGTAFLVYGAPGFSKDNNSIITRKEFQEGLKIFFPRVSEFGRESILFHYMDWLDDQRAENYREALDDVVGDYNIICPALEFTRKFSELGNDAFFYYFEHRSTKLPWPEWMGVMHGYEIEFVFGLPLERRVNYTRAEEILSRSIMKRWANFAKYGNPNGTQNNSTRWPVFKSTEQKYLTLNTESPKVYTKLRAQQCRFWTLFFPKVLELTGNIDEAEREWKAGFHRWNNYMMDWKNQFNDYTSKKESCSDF
Sequence of electric eel acetylcholinesterase (O42275 whole entry): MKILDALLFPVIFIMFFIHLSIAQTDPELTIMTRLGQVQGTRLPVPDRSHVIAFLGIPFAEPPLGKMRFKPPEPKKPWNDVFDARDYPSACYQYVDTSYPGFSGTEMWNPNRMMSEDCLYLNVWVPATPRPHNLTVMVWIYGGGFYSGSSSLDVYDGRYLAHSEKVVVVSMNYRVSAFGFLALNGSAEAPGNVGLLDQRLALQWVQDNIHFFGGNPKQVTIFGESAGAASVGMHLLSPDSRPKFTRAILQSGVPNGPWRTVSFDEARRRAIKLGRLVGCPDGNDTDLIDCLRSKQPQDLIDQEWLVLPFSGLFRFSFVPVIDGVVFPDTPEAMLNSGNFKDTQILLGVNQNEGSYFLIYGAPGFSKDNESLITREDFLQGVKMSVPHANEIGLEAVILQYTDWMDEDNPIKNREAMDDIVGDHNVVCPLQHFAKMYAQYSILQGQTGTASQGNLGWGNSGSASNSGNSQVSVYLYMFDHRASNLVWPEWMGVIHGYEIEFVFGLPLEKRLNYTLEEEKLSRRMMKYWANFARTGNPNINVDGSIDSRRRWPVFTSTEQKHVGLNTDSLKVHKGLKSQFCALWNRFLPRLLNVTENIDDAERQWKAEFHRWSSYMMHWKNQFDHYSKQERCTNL
Source text for anandamide transport: as §1

Usually IC50 stands for the midpoint of a concentration-inhibition curve. In the case of `CCCCNC(=O)Oc1ccc(OCc2ccccc2)cc1` [UCM532, n-Butylcarbamic acid 4-benzyloxyphenyl ester], the “accumulation of non-metabolized [3H]anandamide in neurons” value with rat cortical neurons (4-min incubation, UCM532 3 μM, UCM597 10 nM, AM404 10 μM) was “promote accumulation”. In addition, in the data set with rat cortical neurons (rat cortical neurons), the “carrier-mediated uptake of [3H]anandamide” value is reported as “without reducing”. The “antinociceptive effect, hot-plate test, compared with UCM597” value in the data set “Mouse hot-plate test” is “mimicked, albeit less effectively”. The ED50 on brain FAAH activity turned out to be 0.6 ± 0.09 mg/kg. Further, in data set [1] (adult rats, 20 min session, ≧10 mg kg-1), the ambulation time result is reported as “modest decrease”. The pup movement entry in data set [1] (rat pups, 5 mg kg-1, data not shown) is listed as “no effect”. The isolation-induced ultrasonic calls in data set [2] is given as “strongly reduced”. Besides, the “hyperphagia (increased food intake)” value in data set [3] was “no”. The IC50 is over 30 µM in data set [4]; 0.4 µM on FAAH (Table 3, read-out: Amidohydrolase IC50); 0.3 µM at FAAH (Table 4, FAAH IC50, read-out: Inhibition of Amidohydrolase IC50); 0.396 ± 0.063 µM on FAAH (rat brain membranes, read-out: IC50). In data set [5], the “body temperature / hypothermia, compound alone” value was “no”. Besides, the “mode of FAAH inhibition (kinetic analyses and dialysis experiments)” value at FAAH (data not shown) was “irreversible interaction”. In addition, the “effect on butyryl cholinesterase activity (in words)” value in data set [6] is reported as “did not affect”. Further, the “BCh SI (maximal concentration tested/IC50 for FAAH)” value in data set [6] (Table 2) is given as “≧333”. In addition, the “BCh: maximal concentration of FAAH inhibitor tested” value in data set [6] (Table 2) was over 100 µM. The “AT: maximal concentration of FAAH inhibitor tested” value in the data set with anandamide transport (Table 2) was over 300 µM. Moreover, the “effect on anandamide transport (in words)” value with anandamide transport (human astrocytoma cells) is recorded as “no effect”.
